Test results from US5138069A (E. I. Du Pont de Nemours and Company, priority 1988, dated 1992).
Where two headings read alike, the source gives them in different places.

Experiments:
AII receptor = assay: Angiotensin II receptor binding (displacement of 3H-AII); conditions: read-out: Angiotensin II Receptor Binding IC50, rat adrenal cortical microsomes, 2 nM 3H-AII, 1 hour, room temperature
Method: The assay was carried out according to the method described by [Glossmann et al., J. Biol. Chem., 249, 825 (1974)], but with some modifications. The reaction mixture contained rat adrenal cortical microsomes (source of AII receptor) in Tris buffer and 2 nM of ^3 H-AII with or without potential AII antagonist. This mixture was incubated for 1 hour at room temperature and the reaction was subsequently terminated by rapid filtration and rinsing through glass micro-fibre filter. Receptor-bound ^3 H-AII trapped in filter was quantitated by scintillation counting.
(§1) Compounds listed in Table 26 were tested in the same manner as described for Table 25, except that in the test for antihypertensive effects in renal hypertensive rats, the compounds were administered orally at 30 mg/kg and intravenously at 3 mg/kg.

Renal Hypertensive Rats = assay: Antihypertensive effects in renal hypertensive rats; type: in vivo; conditions: Rattus norvegicus, Table 25; for minimal effective dose at 10 mg/kg: intravenous, 10 mg/kg or less; for minimal effective dose at 100 mg/kg: oral, 100 mg/kg or less
Method: This procedure increases blood pressure by increasing renin production with consequent elevation of AII levels. Compounds are administered orally at 100 mg/kg and/or intravenously via a cannula in the jugular vein at 10 mg/kg. Arterial blood pressure is continuously measured directly through a carotid artery cannula and recorded using a pressure transducer and a polygraph. Blood pressure levels after treatment are compared to pretreatment levels to determine the antihypertensive effects of the compounds (See Table 25).
as §1

[1] = Table 25, tested as sodium salt

Compound: CCCCc1nc(Cl)c(CC(=O)OC)n1Cc1ccc(NC(=O)[C@@H]2CCCC[C@@H]2NS(=O)(=O)C(F)(F)F)cc1 (relative stereo) [Example 74 (cis compound), methyl 2-butyl-4-chloro-1-[4-(cis-2-(trifluoromethanesulfonamido)cyclohexanecarboxamido)benzyl]imidazole-5-acetate]
- IC50 (AII receptor; Table 25): 4500 nM
- minimal effective dose at 10 mg/kg (Renal Hypertensive Rats): < 10 mg/kg
- minimal effective dose at 100 mg/kg (Renal Hypertensive Rats): > 100 mg/kg

Compound: CCCCc1nc(Cl)c(CC(=O)OC)n1Cc1ccc(NC(=O)[C@@H]2CCCC[C@H]2NS(=O)(=O)C(F)(F)F)cc1 (relative stereo) [Example 74 (trans compound), Methyl 2-butyl-4-chloro-1-[4-(trans-2-(trifluoromethanesulfonamido)cyclohexanecarboxamido)benzyl]imidazole-5-acetate]
- IC50 (AII receptor; Table 25): 3900 nM
- minimal effective dose at 10 mg/kg (Renal Hypertensive Rats): < 10 mg/kg
- minimal effective dose at 100 mg/kg (Renal Hypertensive Rats): > 100 mg/kg

Compound: CCCCc1nc(CO)c(Cl)n1Cc1ccc(-c2occc2C(=O)O)cc1 (single isomer, unassigned) [Example 179, 2-n-butyl-1-[4-(3-carboxyfuran-2-yl)benzyl]-5-chloro-4-(hydroxymethyl)imidazole]
- IC50 (AII receptor; Table 25): 4400 nM
- minimal effective dose at 10 mg/kg (Renal Hypertensive Rats): < 10 mg/kg
- minimal effective dose at 100 mg/kg (Renal Hypertensive Rats): > 100 mg/kg

Compound: CCCCc1nc(Cl)c(CC(C)C(=O)N[C@H](C)c2ccccc2)n1Cc1ccc(NC(=O)c2ccccc2C(=O)O)cc1 (single isomer, unassigned) [Example 238, d and l 3-[1-(4-(2-Carboxybenzamido)benzyl-2-butyl-4-chloroimidazol-5-yl]-2-methylpropanoic acid, d-(+)-α-methylbenzylamide]
- IC50 (AII receptor; Table 25): 110 nM
- minimal effective dose at 10 mg/kg (Renal Hypertensive Rats): < 10 mg/kg
- minimal effective dose at 100 mg/kg (Renal Hypertensive Rats): > 100 mg/kg

Compound: CCCCc1nc(Cl)c(CC(C)C(=O)N[C@H](C)c2ccccc2)n1Cc1ccc(NC(=O)c2ccccc2C(=O)O)cc1 (single isomer, unassigned) [Example 239, d and l 3-[1-(4-(2-Carboxybenzamido)benzyl-2-butyl-4-chloroimidazol-5-yl]-2-methylpropanoic acid, d-(+)-α-methylbenzylamide]
- IC50 (AII receptor; Table 25): 120 nM

Compound: CCCCc1nc(CC(=O)OC)c(Cl)n1Cc1ccc(NC(=O)c2ccccc2C(=O)O)cc1 [Example 3, Methyl 2-butyl-1-[4-(2-carboxybenzamido)benzyl]-5-chloroimidazole-4-acetate]
- IC50 (AII receptor; [1]): 420 nM
- minimal effective dose at 100 mg/kg (Renal Hypertensive Rats; tested as sodium salt): > 100 mg/kg

Compound: CCCCc1nc(Cl)c(CC(=O)OC)n1Cc1ccc(NC(=O)c2ccccc2-c2ccccc2C(=O)O)cc1 [Example 5]
- IC50 (AII receptor; [1]): 190 nM
- minimal effective dose at 100 mg/kg (Renal Hypertensive Rats; tested as sodium salt): > 100 mg/kg

Compound: CCCCc1nc(Cl)c(CC(=O)OC)n1Cc1ccc(NC(=O)/C=C\C(=O)O)cc1 [Example 6]
- IC50 (AII receptor; Table 25): 5700 nM

Compound: CCCCc1nc(Cl)c(CC(=O)OC)n1Cc1ccc(NC(=O)c2c(C(=O)O)cccc2[N+](=O)[O-])cc1 [Example 7]
- IC50 (AII receptor; Table 25): 420 nM
- minimal effective dose at 10 mg/kg (Renal Hypertensive Rats): < 10 mg/kg
- minimal effective dose at 100 mg/kg (Renal Hypertensive Rats): > 100 mg/kg

Compound: CCCCc1nc(Cl)c(CC(=O)OC)n1Cc1ccc(NC(=O)c2cc3ccccc3cc2C(=O)O)cc1 [Example 9]
- IC50 (AII receptor; [1]): 5800 nM

Compound: CCCCc1nc(Cl)c(COC(C)=O)n1Cc1ccc(NC(=O)c2ccccc2C(=O)O)cc1 [Example 10]
- IC50 (AII receptor; [1]): 190 nM

Compound: CCCCc1nc(Cl)c(CC(=O)OC)n1Cc1ccc(NC(=O)c2c(Cl)ccc(Cl)c2C(=O)O)cc1 [Example 16]
- IC50 (AII receptor; Table 25): 18 nM
- minimal effective dose at 10 mg/kg (Renal Hypertensive Rats): < 10 mg/kg
- minimal effective dose at 100 mg/kg (Renal Hypertensive Rats): > 100 mg/kg

Compound: CCCCc1nc(Cl)c(COC(C)=O)n1Cc1ccc(C(=O)O)cc1 [Example 20, 5-Acetoxymethyl-2-butyl-1-(4-carboxybenzyl)-4-chloroimidazole]
- IC50 (AII receptor; [1]): 5300 nM

Compound: CCCCc1nc(Cl)c(CC(=O)OC)n1Cc1ccc(NS(=O)(=O)C(F)(F)F)cc1 [Example 21, Methyl 2-butyl-4-chloro-1-[4-(trifluoromethylsulfonamido)benzyl]imidazole-5-acetate]
- IC50 (AII receptor; [1]): 2100 nM
- minimal effective dose at 10 mg/kg (Renal Hypertensive Rats; tested as sodium salt): < 10 mg/kg
- minimal effective dose at 100 mg/kg (Renal Hypertensive Rats; tested as sodium salt): > 100 mg/kg

Compound: CCCCc1nc(Cl)c(CC(=O)O)n1Cc1ccc(NS(=O)(=O)C(F)(F)F)cc1 [Example 25]
- IC50 (AII receptor; Table 25): 3900 nM

Compound: CCCCc1nc(Cl)c(CO)n1Cc1ccc(N2C(=O)c3ccccc3C2=O)cc1 [Example 28, 2-Butyl-4-chloro-5-hydroxymethyl-1-(4-N-phthalimidobenzyl)imidazole]
- IC50 (AII receptor; Table 25): 8000 nM

Compound: CCCCc1nc(Cl)c(CC(=O)O)n1Cc1ccc(NC(=O)c2ccccc2NS(=O)(=O)C(F)(F)F)cc1 [Example 31, 2-Butyl-4-chloro-1-[4-((N-trifluoromethanesulfonyl)anthranilamido)benzyl]imidazole-5-acetic acid]
- IC50 (AII receptor; Table 25): 640 nM

Compound: CCCCc1nc(Cl)c(CC(=O)O)n1Cc1ccc(NC(=O)c2ccccc2C(=O)O)cc1 [Example 32, 2-Butyl-1-[4-(2-carboxybenzamido)-benzyl]-4-chloroimidazole-5-acetic acid]
- IC50 (AII receptor; [1]): 430 nM

Compound: CCCCc1nc(Cl)c(CC(=O)OC)n1Cc1ccc(NC(=O)c2cccc(NS(=O)(=O)C(F)(F)F)c2)cc1 [Example 33]
- IC50 (AII receptor; Table 25): 940 nM

Compound: CCCCc1nc(Cl)c(Cc2nn[nH]n2)n1Cc1ccc(NC(=O)c2ccccc2NS(=O)(=O)C(F)(F)F)cc1 [Example 52]
- IC50 (AII receptor; Table 25): 1100 nM

Compound: COCCc1nc(Cl)c(CO)n1Cc1ccc(NC(=O)c2ccccc2NS(=O)(=O)C(F)(F)F)cc1 [Example 56, 4-Chloro-5-hydroxymethyl-2-(2-methoxyethyl)-1-[4-((N-trifluoromethanesulfonyl)anthranilamido)benzyl]imidazole]
- IC50 (AII receptor; Table 25): 4400 nM

Compound: CCCCCc1nccn1Cc1ccc(NC(=O)c2ccccc2NS(=O)(=O)C(F)(F)F)cc1 [Example 60]
- IC50 (AII receptor; Table 25): 1200 nM

Compound: O=C(Nc1ccc(Cn2ccnc2CC2CCCCC2)cc1)c1ccccc1NS(=O)(=O)C(F)(F)F [Example 61]
- IC50 (AII receptor; Table 25): 5000 nM

Compound: CCc1nccn1Cc1ccc(NC(=O)c2ccccc2C(=O)O)cc1 [Example 62]
- IC50 (AII receptor; [1]): 9200 nM

Compound: O=C(O)c1ccccc1C(=O)Nc1ccc(Cn2ccnc2CC2CCCCC2)cc1 [Example 71]
- IC50 (AII receptor; Table 25): 2800 nM

Compound: CCCCc1nc(Cl)c(COC)n1Cc1ccc(C(=O)N[C@@H](Cc2ccccc2)C(=O)O)cc1 [Example 82]
- IC50 (AII receptor; Table 25): 6100 nM

Compound: CCCCc1nc(Cl)c(COC)n1Cc1ccc(C(=O)N2CCC[C@H]2C(=O)O)cc1 [Example 83]
- IC50 (AII receptor; Table 25): 6400 nM

Compound: CCc1nc(Cl)c(CO)n1Cc1ccc(-c2ccccc2C(=O)O)cc1 [Example 107]
- IC50 (AII receptor; Table 25): 1700 nM

Compound: CCCc1nc(Cl)c(CO)n1Cc1ccc(-c2ccccc2-c2nn[nH]n2)cc1 [Example 113]
- IC50 (AII receptor; Table 25): 20 nM

Compound: CCCc1nc(C(F)(F)C(F)(F)F)c(CO)n1Cc1ccc(-c2ccccc2-c2nn[nH]n2)cc1 [Example 124F]
- IC50 (AII receptor; Table 26): 1 nM

Compound: CCC=Cc1nc(Cl)c(CO)n1Cc1ccc(-c2ccccc2-c2nnn[nH]2)cc1 [Example 139]
- IC50 (AII receptor; Table 26): 11 nM

Compound: CCCCc1nc(Cl)c(Cn2ccnc2)n1Cc1ccc(C(=O)c2ccccc2C(=O)O)cc1 [Example 205]
- IC50 (AII receptor; [1]): 2500 nM

Compound: CCCCc1nc(Cl)c(CN=[N+]=[N-])n1Cc1ccc(C(=O)c2ccccc2C(=O)O)cc1 [Example 206]
- IC50 (AII receptor; [1]): 1400 nM

Compound: CCCCc1nc(Cl)c(CNS(=O)(=O)C(F)(F)F)n1Cc1ccc(C(=O)c2ccccc2C(=O)O)cc1 [Example 217, 2-Butyl-1-[4-(2-carboxybenzoyl)benzyl]-4-chloro-5-[(trifluoromethylsulfonamido)methyl]imidazole]
- IC50 (AII receptor; [1]): 2700 nM

Compound: CCCCc1nc(Cl)c(/C=C/C(=O)OCC)n1Cc1ccc(NC(=O)c2ccccc2C(=O)O)cc1 [Example 228, 3-[2-Butyl-4-chloro-1-(4-(2-carboxybenzamido)benzyl)imidazol-5-yl]-propenoic acid ethyl ester, E isomer]
- IC50 (AII receptor; Table 25): 530 nM

Compound: CCCCc1nc(Cl)c(/C=C/COC(C)=O)n1Cc1ccc(NC(=O)c2ccccc2C(=O)O)cc1 [Example 231, 3-[2-Butyl-4-chloro-1-(4-(2-carboxybenzamido)benzyl)imidazol-5-yl]-3-propen-1-ol acetate, E isomer]
- IC50 (AII receptor; Table 25): 76 nM

Compound: CCCCc1nc(Cl)c(/C=C/CO)n1Cc1ccc(NC(=O)c2ccccc2C(=O)O)cc1 [Example 241]
- IC50 (AII receptor; Table 25): 170 nM

Compound: CCCCc1nc(Cl)c(/C=C/C(C)O)n1Cc1ccc(NC(=O)c2ccccc2C(=O)O)cc1 (stereo not shown) [Example 243]
- IC50 (AII receptor; Table 25): 200 nM

Compound: CCCCc1nc(Cl)c(CCCOC(C)=O)n1Cc1ccc(NC(=O)c2ccccc2C(=O)O)cc1 [Example 247]
- IC50 (AII receptor; Table 25): 110 nM

Compound: CCCCc1nc(C#N)c(C(N)=O)n1Cc1ccc(-c2ccccc2-c2nnn[nH]2)cc1 [Example 342, 2-n-Butyl-5-carboxamido-4-cyano-1-[(2'-(1H-tetrazol-5-yl)biphenyl-4-yl)methyl]imidazole]
- IC50 (AII receptor; Table 26): 37 nM

Compound: CCCCc1nc(Cl)c(CN2CCN(c3ccccc3OC)CC2)n1Cc1ccc(-c2ccccc2-c2nnn[nH]2)cc1 [Example 354, 2-n-Butyl-4-chloro-5-[(4-(2-methoxyphenyl)piperazin-1-yl)methyl]-1-[(2'-(1H-tetrazol-5-yl)biphenyl-4-yl)methyl]imidazole]
- IC50 (AII receptor; Table 25): 350 nM
- IC50 (AII receptor; Table 26): 350 nM
